A short description of experiment [1]: DRUGMATRIX: Leukotriene, BLT (LTB4) radioligand binding (ligand: [3H]LTB4). The conditions noted are these: u-937; Not Active = under 50% inhibition at 10 µM. In kind it is cell membranes, Membrane.
Experiment [2] in a line: DRUGMATRIX: Sigma2 radioligand binding (ligand: [3H] Ifenprodil). The experiment is classed as cell membranes, Rattus norvegicus, Wistar, Brain, Membrane. The conditions noted are these: Not Active = under 50% inhibition at 10 µM.
In the next experiment the target is T1, D(4) dopamine receptor (Homo sapiens, UniProt P21917).
T1 sequence (P21917 whole entry): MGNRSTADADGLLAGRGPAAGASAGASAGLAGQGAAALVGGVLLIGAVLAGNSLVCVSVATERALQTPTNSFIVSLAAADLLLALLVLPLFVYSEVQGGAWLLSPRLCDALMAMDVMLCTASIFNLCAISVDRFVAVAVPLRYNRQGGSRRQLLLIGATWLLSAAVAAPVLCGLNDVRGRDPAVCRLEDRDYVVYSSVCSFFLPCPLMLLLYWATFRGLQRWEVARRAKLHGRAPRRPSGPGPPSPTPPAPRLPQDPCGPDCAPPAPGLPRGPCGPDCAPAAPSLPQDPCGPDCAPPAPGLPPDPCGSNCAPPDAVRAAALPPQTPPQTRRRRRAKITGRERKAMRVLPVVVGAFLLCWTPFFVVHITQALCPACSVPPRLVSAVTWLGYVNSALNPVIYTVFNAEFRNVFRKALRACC
The experiment in a line: DRUGMATRIX: Dopamine D4.2 radioligand binding (ligand: [3H] Spiperone). The experiment is classed as cell membranes, CHO-K1, Membrane. The conditions noted are these: cho-k1; Not Active = under 50% inhibition at 10 µM.

The nature of experiment [3]: DRUGMATRIX: Atrial Natriuretic Factor (ANF) radioligand binding (ligand: [125I] ANF (rat)). In kind it is cell membranes, Cavia porcellus, Dunkin-Hartley, Adrenal gland, Membrane. The conditions noted are these: Not Active = under 50% inhibition at 10 µM.
Experiment [4] deals with Vascular endothelial growth factor receptor 1 (Homo sapiens, UniProt P17948). In kind it is cell-based. The conditions noted are these: huvec.
Experiment [5] concerns the target C-C chemokine receptor type 5 (Homo sapiens, UniProt P51681). The experiment is classed as cell membranes, Membrane. The conditions noted are these: hek293. Note: in other assays of this panel Not Active means under 50% inhibition at 10 µM.
The target of the next experiment is Nitric oxide synthase 1 (Rattus norvegicus, UniProt P29476). In kind it is tissue-based, Cerebellum. Note: in other assays of this panel Not Active means under 50% inhibition at 10 µM.
Another experiment deals with T2, Caspase-1 (Homo sapiens, UniProt P29466).
T2 sequence (P29466 whole entry): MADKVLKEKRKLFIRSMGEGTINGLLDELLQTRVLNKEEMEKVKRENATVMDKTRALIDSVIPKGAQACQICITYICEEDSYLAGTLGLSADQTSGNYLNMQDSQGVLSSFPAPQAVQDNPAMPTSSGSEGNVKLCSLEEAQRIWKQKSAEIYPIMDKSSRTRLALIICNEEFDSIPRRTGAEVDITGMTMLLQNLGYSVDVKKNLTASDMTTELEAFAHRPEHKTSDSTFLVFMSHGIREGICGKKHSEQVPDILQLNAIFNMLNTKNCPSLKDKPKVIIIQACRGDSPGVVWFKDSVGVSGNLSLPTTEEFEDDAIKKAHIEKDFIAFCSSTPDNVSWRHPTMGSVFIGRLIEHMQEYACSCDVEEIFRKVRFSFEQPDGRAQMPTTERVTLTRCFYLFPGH
Set-up: species or system Escherichia coli.

In experiment [6] the target is T3, Alpha-2C adrenergic receptor (Homo sapiens, UniProt P18825).
T3 sequence (P18825 whole entry): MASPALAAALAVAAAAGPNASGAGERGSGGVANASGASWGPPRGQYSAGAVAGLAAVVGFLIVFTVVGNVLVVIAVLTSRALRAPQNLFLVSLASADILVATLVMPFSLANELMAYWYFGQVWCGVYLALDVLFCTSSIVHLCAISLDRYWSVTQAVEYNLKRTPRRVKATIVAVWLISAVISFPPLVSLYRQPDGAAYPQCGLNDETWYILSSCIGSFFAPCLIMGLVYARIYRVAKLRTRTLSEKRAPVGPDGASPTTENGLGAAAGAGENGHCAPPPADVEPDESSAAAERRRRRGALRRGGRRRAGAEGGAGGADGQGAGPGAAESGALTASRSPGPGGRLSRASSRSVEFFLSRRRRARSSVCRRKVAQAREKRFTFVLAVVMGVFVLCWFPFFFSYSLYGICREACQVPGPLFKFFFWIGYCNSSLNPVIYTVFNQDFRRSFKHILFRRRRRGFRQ
The experiment in a line: DRUGMATRIX: Adrenergic Alpha-2C radioligand binding (ligand: [3H] MK-912). The experiment is classed as cell membranes, Sf9, Membrane. The settings on record: sf9.

Experiment [7] deals with Sodium-dependent dopamine transporter (Homo sapiens, UniProt Q01959). The experiment in a line: DRUGMATRIX: Dopamine Transporter radioligand binding (ligand: [125I] RTI-55). The settings on record: cho-k1; Not Active = under 50% inhibition at 10 µM. The experiment is classed as cell membranes, CHO-K1, Membrane.
The target of the next experiment is Glycine receptor (Rattus norvegicus, UniProt P22771+P24524+P07727+P20781). In kind it is cell membranes, Wistar, Spinal cord, Membrane. Note: in other assays of this panel Not Active means under 50% inhibition at 10 µM.
The nature of experiment [8]: DRUGMATRIX: Imidazoline I2, Central radioligand binding (ligand: [3H] Idazoxan). In kind it is cell membranes, Rattus norvegicus, Wistar, Cerebral cortex, Membrane. The conditions noted are these: Not Active = under 50% inhibition at 10 µM.
Another experiment addresses Carbonic anhydrase 2 (Homo sapiens, UniProt P00918). The experiment in a line: DRUGMATRIX: Carbonic Anhydrase II enzyme inhibition (substrate: 4-Nitrophenyl acetate (4-NPA)). The settings on record: erythrocyte; Not Active = under 50% inhibition at 10 µM. The experiment is classed as tissue-based, Erythrocyte.
The target of the next experiment is T4, Thromboxane-A synthase (Homo sapiens, UniProt P24557).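 Note: enzyme inhibition assay with PGH2 supplied as substrate; in other assays of this panel Not Active means under 50% inhibition at 10 µM.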
T4 sequence (P24557 whole entry): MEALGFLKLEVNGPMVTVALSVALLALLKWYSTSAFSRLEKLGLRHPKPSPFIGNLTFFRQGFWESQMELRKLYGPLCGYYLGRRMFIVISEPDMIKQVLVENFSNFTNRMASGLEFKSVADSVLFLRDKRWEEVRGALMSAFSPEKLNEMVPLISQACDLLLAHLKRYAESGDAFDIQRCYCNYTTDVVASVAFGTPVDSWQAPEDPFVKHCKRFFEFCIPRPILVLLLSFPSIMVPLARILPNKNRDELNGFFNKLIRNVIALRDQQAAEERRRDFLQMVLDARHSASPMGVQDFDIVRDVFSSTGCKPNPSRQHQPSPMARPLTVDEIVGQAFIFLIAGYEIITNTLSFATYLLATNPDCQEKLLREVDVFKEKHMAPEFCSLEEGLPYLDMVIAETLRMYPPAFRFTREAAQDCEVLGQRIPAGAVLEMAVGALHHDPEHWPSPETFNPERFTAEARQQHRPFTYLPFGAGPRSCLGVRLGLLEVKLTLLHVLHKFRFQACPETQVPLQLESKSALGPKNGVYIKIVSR
The experiment in a line: biochemical. The experiment is classed as tissue-based, Platelet.

Six compounds from ChEMBL document CHEMBL1909046, “DrugMatrix in vitro pharmacology data” can be followed below.

A word on the IC50: it is the concentration that gives 50% inhibition.

Chain of Nitric oxide synthase 1 (P29476 whole entry): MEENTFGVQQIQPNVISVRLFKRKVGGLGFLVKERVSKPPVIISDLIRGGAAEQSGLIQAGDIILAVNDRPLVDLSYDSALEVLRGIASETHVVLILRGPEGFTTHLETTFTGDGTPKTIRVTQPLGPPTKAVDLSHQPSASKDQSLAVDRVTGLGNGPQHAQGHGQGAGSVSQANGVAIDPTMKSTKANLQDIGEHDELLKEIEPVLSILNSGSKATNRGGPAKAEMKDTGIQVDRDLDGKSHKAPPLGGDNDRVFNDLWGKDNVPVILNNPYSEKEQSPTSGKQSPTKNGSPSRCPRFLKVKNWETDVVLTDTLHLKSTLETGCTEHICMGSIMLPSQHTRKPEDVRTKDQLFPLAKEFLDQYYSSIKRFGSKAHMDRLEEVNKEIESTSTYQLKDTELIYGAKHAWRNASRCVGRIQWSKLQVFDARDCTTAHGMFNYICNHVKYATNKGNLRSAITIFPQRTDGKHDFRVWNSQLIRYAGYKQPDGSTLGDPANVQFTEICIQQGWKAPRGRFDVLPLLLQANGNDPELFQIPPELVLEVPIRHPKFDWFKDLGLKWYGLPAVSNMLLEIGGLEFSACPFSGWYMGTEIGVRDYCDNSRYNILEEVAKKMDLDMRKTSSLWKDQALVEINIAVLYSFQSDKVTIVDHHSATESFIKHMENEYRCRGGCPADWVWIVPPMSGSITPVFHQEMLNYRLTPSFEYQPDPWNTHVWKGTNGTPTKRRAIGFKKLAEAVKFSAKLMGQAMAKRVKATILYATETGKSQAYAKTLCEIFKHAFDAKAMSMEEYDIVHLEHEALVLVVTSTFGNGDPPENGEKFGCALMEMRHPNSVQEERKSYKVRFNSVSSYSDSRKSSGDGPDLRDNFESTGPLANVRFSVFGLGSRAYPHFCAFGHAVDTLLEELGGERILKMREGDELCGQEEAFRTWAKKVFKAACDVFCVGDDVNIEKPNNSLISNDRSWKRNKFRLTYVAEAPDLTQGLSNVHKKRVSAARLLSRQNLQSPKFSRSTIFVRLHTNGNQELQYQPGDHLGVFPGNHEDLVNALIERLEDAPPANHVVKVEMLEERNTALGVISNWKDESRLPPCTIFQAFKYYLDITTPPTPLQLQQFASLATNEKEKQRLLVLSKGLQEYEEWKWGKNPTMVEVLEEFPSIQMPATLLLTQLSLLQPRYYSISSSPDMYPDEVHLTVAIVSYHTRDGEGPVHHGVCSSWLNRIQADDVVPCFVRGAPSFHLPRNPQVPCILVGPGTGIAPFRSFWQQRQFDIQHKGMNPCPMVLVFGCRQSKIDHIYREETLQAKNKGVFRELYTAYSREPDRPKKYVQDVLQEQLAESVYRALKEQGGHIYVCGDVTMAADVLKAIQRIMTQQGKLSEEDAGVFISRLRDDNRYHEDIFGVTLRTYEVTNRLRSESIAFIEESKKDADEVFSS
Chain of Sodium-dependent dopamine transporter (Q01959 whole entry): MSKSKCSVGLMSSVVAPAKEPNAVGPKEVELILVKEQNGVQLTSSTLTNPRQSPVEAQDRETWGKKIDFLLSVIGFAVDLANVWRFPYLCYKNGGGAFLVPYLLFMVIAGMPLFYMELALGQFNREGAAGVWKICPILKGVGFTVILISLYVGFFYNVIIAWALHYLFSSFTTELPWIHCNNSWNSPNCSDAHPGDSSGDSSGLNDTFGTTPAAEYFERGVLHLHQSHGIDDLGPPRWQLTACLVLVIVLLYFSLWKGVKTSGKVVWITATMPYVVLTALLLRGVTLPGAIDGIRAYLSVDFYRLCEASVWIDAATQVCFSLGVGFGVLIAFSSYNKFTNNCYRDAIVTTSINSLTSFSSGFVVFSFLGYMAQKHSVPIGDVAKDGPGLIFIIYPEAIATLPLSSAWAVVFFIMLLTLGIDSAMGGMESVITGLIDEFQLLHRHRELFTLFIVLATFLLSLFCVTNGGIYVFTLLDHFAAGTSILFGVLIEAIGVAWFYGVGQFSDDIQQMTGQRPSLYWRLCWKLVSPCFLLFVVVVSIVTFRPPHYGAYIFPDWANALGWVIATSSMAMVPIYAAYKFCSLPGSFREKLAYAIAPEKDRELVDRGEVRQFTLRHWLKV
Chain of C-C chemokine receptor type 5 (P51681 whole entry): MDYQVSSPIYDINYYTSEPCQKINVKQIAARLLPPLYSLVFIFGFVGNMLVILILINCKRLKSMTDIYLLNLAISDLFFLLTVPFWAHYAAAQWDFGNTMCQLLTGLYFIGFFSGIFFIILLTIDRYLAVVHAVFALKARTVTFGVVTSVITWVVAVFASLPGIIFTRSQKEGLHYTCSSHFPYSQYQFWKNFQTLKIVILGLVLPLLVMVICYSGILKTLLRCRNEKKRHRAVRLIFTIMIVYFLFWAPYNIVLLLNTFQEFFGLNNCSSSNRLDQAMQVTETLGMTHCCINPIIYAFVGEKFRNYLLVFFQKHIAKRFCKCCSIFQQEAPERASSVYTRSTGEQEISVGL
Chain of Vascular endothelial growth factor receptor 1 (P17948 whole entry): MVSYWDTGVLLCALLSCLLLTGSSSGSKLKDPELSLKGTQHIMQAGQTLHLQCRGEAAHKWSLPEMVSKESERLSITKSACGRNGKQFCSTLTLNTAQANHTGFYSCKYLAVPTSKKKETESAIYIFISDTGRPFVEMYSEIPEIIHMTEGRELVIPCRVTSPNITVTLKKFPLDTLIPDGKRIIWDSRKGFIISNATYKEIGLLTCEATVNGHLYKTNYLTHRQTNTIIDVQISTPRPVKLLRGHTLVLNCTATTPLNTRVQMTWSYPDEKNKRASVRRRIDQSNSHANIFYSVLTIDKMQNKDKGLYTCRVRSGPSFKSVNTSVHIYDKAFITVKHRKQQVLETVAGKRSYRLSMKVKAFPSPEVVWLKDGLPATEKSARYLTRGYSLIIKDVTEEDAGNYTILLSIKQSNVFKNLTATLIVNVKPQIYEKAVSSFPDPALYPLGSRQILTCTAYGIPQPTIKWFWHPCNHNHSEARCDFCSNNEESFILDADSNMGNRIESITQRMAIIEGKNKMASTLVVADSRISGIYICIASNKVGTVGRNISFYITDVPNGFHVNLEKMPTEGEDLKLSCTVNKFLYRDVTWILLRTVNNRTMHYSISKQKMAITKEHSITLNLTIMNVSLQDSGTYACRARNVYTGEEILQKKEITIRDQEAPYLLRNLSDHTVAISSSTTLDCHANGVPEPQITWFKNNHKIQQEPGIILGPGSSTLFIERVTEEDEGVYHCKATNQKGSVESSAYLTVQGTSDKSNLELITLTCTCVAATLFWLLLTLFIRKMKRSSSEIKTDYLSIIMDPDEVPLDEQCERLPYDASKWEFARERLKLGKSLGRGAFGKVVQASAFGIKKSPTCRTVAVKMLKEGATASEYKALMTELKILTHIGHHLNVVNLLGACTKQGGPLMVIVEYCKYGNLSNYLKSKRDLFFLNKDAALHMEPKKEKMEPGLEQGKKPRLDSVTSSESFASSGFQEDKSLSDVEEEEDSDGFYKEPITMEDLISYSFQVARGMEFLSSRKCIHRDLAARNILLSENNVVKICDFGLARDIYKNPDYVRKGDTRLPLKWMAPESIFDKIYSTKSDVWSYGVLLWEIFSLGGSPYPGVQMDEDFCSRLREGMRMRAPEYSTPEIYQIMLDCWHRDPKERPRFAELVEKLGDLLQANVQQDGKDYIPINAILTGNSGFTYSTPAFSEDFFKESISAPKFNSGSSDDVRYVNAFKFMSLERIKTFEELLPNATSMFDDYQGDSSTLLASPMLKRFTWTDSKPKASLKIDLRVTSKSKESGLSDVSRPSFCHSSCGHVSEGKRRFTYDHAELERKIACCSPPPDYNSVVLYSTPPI

Take `COC(=O)C1=C(C)NC(C)=C(C(=O)OC)C1c1ccccc1[N+](=O)[O-]` [NIFEDIPINE]: the concentration for half-maximal inhibition (IC50) result (in [1]; in experiment [2]; on D(4) dopamine receptor; in experiment [3]; in [4]; in experiment [5]) was “Not Active” in each case. For the same compound, the IC50 result (against Nitric oxide synthase 1; against Caspase-1; in [6]; in [7]; against Glycine receptor; in experiment [8]) was “Not Active” throughout. In addition, the IC50 entry on Carbonic anhydrase 2 is “Not Active”; on Thromboxane-A synthase (read-out: IC50) it was 18.6 µM. Further, the Ki entry in experiment [1], in experiment [2], in experiment [3] and in experiment [8] was “Not Active” throughout.

Take `NNc1ccccc1` [PHENYLHYDRAZINE]: the IC50 result (in [1]; in [2]; at D(4) dopamine receptor; in [3]; in [4]; in experiment [5]) was “Not Active” throughout. Besides, the IC50 entry (on Nitric oxide synthase 1; at Caspase-1; in [6]; in experiment [7]; at Glycine receptor; in experiment [8]) was “Not Active” each time. The IC50 entry on Carbonic anhydrase 2 and on Thromboxane-A synthase (platelet) was “Not Active” throughout. The Ki entry in experiment [1], in [2], in [3] and in [8] was “Not Active” each time.

In the case of `CC(=O)[C@H]1CC[C@H]2[C@@H]3CCC4=CC(=O)CC[C@]4(C)[C@H]3CC[C@]12C` [PROGESTERONE], the IC50 entry (in [1]; in experiment [2]; at D(4) dopamine receptor; in experiment [3]; in [4]; in experiment [5]) was “Not Active” in each case. Moreover, the IC50 result (at Nitric oxide synthase 1; against Caspase-1; in experiment [6]; in experiment [7]; on Glycine receptor; in [8]) was “Not Active” in each case. Further, the IC50 entry against Carbonic anhydrase 2 and at Thromboxane-A synthase (platelet) was “Not Active” throughout. In addition, the Ki result in experiment [1], in experiment [2], in experiment [3] and in experiment [8] was “Not Active” in each case.

Regarding `NC(=O)c1ncn([C@@H]2O[C@H](CO)[C@@H](O)[C@H]2O)n1` [RIBAVIRIN], the IC50 entry (in experiment [1]; in experiment [2]; on D(4) dopamine receptor; in experiment [3]; in experiment [4]; in [5]) was “Not Active” throughout. In addition, the IC50 result (on Nitric oxide synthase 1; against Caspase-1; in [6]; in experiment [7]; against Glycine receptor; in [8]) was “Not Active” throughout. The IC50 entry on Carbonic anhydrase 2 and on Thromboxane-A synthase (platelet) was “Not Active” each time. The Ki result in [1], in experiment [2], in [3] and in [8] was “Not Active” throughout.

`O=[N+]([O-])c1cc([As](=O)(O)O)ccc1O` [ROXARSONE]: the IC50 entry (in experiment [1]; in [2]; at D(4) dopamine receptor; in [3]; in [4]; in experiment [5]) was “Not Active” in each case. In addition, the IC50 result (against Nitric oxide synthase 1; on Caspase-1; in experiment [6]; in [7]; on Glycine receptor; in [8]) was “Not Active” throughout. In addition, the IC50 entry on Carbonic anhydrase 2 and on Thromboxane-A synthase (platelet) was “Not Active” each time. Besides, the Ki entry (in experiment [1]; in experiment [2]; at D(4) dopamine receptor; in [3]; in experiment [4]; in experiment [5]) was “Not Active” in each case. Moreover, the Ki entry (at Nitric oxide synthase 1; on Caspase-1; in experiment [6]; in [7]; on Glycine receptor; in [8]) was “Not Active” in each case. Also, the Ki result at Carbonic anhydrase 2 and on Thromboxane-A synthase (platelet) was “Not Active” throughout.

In the case of `CC[C@H]1OC(=O)[C@H](C)[C@@H](O[C@H]2C[C@@](C)(OC)[C@@H](O)[C@H](C)O2)[C@H](C)[C@@H](O[C@@H]2O[C@H](C)C[C@H](N(C)C)[C@H]2O)[C@](C)(O)C[C@@H](C)/C(=N\OCOCCOC)[C@H](C)[C@@H](O)[C@]1(C)O` [ROXITHROMYCIN], the IC50 result (in experiment [1]; in experiment [2]; on D(4) dopamine receptor; in experiment [3]; in experiment [4]; in experiment [5]) was “Not Active” throughout. Also, the IC50 result (against Nitric oxide synthase 1; against Caspase-1; in experiment [6]; in [7]; at Glycine receptor; in experiment [8]) was “Not Active” each time. Moreover, the IC50 entry at Carbonic anhydrase 2 and on Thromboxane-A synthase (platelet) was “Not Active” each time. Further, the Ki result in [1], in experiment [2], in experiment [3] and in experiment [8] was “Not Active” throughout.
